Source: patent US11180504B2 (ORCHID PHARMA LTD., priority 2016, dated 2021)
Values after ≈ are worked out from the molar mass of the structure shown. Where two headings read alike, the source gives them in different places.

Assays:
[1] = test system: methicillin-sensitive Staphylococcus aureus; assay: MIC by broth micro-dilution (CLSI), methicillin-sensitive S. aureus; format: cell-based; details: MSSA S. aureus ATCC29213
[2] = test system: carbapenem sensitive Escherichia coli; assay: MIC by broth micro-dilution (CLSI), carbapenem sensitive E. coli; format: cell-based
[3] = test system: carbapenemase producing K. pneumoniae; assay: MIC by broth micro-dilution (CLSI), carbapenemase producing K. pneumoniae; format: cell-based, Klebsiella pneumoniae
[4] = test system: carbapenem sensitive Pseudomonas aeruginosa; assay: MIC by broth micro-dilution (CLSI), carbapenem sensitive P. aeruginosa; format: cell-based
[5] = Staphylococcus aureus, ATCC 29213 / MSSA, read-out: MIC
[6] = Escherichia coli, ATCC25922, ESBL −ve E. coli ATCC25922, read-out: MIC
[7] = Klebsiella pneumoniae, ATCCBAA1705, KPC-2 K. pneumoniae ATCC BAA-1705, read-out: MIC
[8] = Pseudomonas aeruginosa, ATCC27853, Meropenem susceptible P. aeruginosa ATCC27853, read-out: MIC

C[C@@H](NC(=O)Cn1cnnn1)[C@H]1C(=O)N2C(C(=O)O)=C(S[C@@H]3CN[C@H](C(=O)N4CC5CNC5C4)C3)[C@H](C)[C@H]12 (stereo partly drawn) [Example 591, (4R,5S,6R)-6-((R)-1-(2-(1H-tetrazol-1-yl)acetamido)ethyl)-3-((3S,5S)-5-(3,6-diazabicyclo[3.2.0]heptane-3-carbonyl)pyrrolidin-3-ylthio)-4-methyl-7-oxo-1-azabicyclo[3.2.0]hept-2-ene-2-carboxylic acid]
MIC [1]: 2 µg/mL (≈ 3.67 µM)
MIC ([2]; ESBL −ve E. coli ATCC25922): 0.25 µg/mL (≈ 0.458 µM)
MIC ([3]; KPC-2 K. pneumoniae ATCC BAA-1705): 1 µg/mL (≈ 1.83 µM)
MIC ([4]; Meropenem susceptible P. aeruginosa ATCC27853): 1 µg/mL (≈ 1.83 µM)

C[C@@H](NC(=O)Cn1cnnn1)[C@H]1C(=O)N2C(C(=O)O)=C(S[C@@H]3CN[C@H](C(=O)N4CCC5(CCCCN5)CC4)C3)[C@H](C)[C@H]12 [Example 418, (4R,5S,6R)-3-((3S,5S)-5-(1,9-diazaspiro[5.5]undecane-9-carbonyl)pyrrolidin-3-ylthio)-6-((R)-1-(2-(1H-tetrazol-1-yl)acetamido)ethyl)-4-methyl-7-oxo-1-azabicyclo[3.2.0]hept-2-ene-2-carboxylic acid]
MIC [1, 5]: 8 µg/mL (≈ 13.3 µM)
MIC [2, 6]: 1 µg/mL (≈ 1.66 µM)
MIC [3, 7]: 4 µg/mL (≈ 6.65 µM)
MIC [4, 8]: 8 µg/mL (≈ 13.3 µM)

C[C@@H](NC(=O)Cn1cnnn1)[C@H]1C(=O)N2C(C(=O)O)=C(S[C@@H]3CN[C@H](C(=O)N4CCCCC45CCNCC5)C3)[C@H](C)[C@H]12 [Example 476, (4R,5S,6R)-3-((3S,5S)-5-(1,9-diazaspiro[5.5]undecane1-carbonyl)pyrrolidin-3-ylthio)-6-((R)-1-(2-(1H-tetrazol-1-yl)acetamido)ethyl)-4-methyl-7-oxo-1-azabicyclo[3.2.0]hept-2-ene-2-carboxylic acid]
MIC [1, 5]: 2 µg/mL (≈ 3.32 µM)
MIC [2, 6]: 1 µg/mL (≈ 1.66 µM)
MIC [3, 7]: 2 µg/mL (≈ 3.32 µM)
MIC [4, 8]: 32 µg/mL (≈ 53.2 µM)

CNCC(=O)N[C@H](C)[C@H]1C(=O)N2C(C(=O)O)=C(SC[C@@H]3C[C@H](NS(N)(=O)=O)CN3)[C@H](C)[C@H]12 [Example 269]
MIC [1, 5]: 16 µg/mL (≈ 32.6 µM)
MIC [2, 6]: 4 µg/mL (≈ 8.15 µM)
MIC [3, 7]: 4 µg/mL (≈ 8.15 µM)
MIC [4, 8]: 128 µg/mL (≈ 261 µM)

C[C@@H](NC(=O)C(F)F)[C@H]1C(=O)N2C(C(=O)O)=C(S[C@@H]3CN[C@H](CNS(=O)(=O)N4CC[C@@H](N)C4)C3)[C@H](C)[C@H]12 [Example 236]
MIC [1, 5]: 2 µg/mL (≈ 3.53 µM)
MIC [2, 6]: 2 µg/mL (≈ 3.53 µM)
MIC [3, 7]: 4 µg/mL (≈ 7.06 µM)
MIC [4, 8]: 128 µg/mL (≈ 226 µM)

C[C@@H](NC(=O)[C@H]1CC[C@@H](N)C1)[C@H]1C(=O)N2C(C(=O)O)=C(S[C@@H]3CN[C@H](C(=O)N(C)C)C3)[C@H](C)[C@H]12 [Example 266]
MIC [1, 5]: 64 µg/mL (≈ 130 µM)
MIC [2, 6]: 2 µg/mL (≈ 4.05 µM)
MIC [3, 7]: 8 µg/mL (≈ 16.2 µM)
MIC [4, 8]: 128 µg/mL (≈ 259 µM)

C[C@H]([C@H]1C(=O)N2C(C(=O)O)=C(S[C@@H]3CN[C@H](C(=O)N(C)C)C3)[C@H](C)[C@H]12)n1cnnn1 [Example 319, (4R,5S,6S)-6-((R)-1-(1H-tetrazol-1-yl)ethyl)-3-((3S,5S)-5-(dimethylcarbamoyl)pyrrolidin-3-ylthio)-4-methyl-7-oxo-1-azabicyclo[3.2.0]hept-2-ene-2-carboxylic acid]
MIC [1, 5]: 2 µg/mL (≈ 4.59 µM)
MIC [2, 6]: 0.25 µg/mL (≈ 0.574 µM)
MIC [3, 7]: 1 µg/mL (≈ 2.3 µM)
MIC [4, 8]: 32 µg/mL (≈ 73.5 µM)

C[C@@H](NC(=O)Cn1cnnn1)[C@H]1C(=O)N2C(C(=O)O)=C(S[C@@H]3CN[C@H](C(=O)N4CCN(CCN5CCNCC5)CC4)C3)[C@H](C)[C@H]12 [Example 451, (4R,5S,6R)-6-((R)-1-(2-(1H-tetrazol-1-yl)acetamido)ethyl)-3-methyl-7-oxo-3-((3S,5S)-5-(4-(2-(piperazin-1-yl)ethyl)piperazine-1-carbonyl)pyrrolidin-3-ylthio)-1-azabicyclo[3.2.0]hept-2-ene-2-carboxylic acid]
MIC [1, 5]: 8 µg/mL (≈ 12.4 µM)
MIC [2, 6]: 0.25 µg/mL (≈ 0.387 µM)
MIC [3, 7]: 1 µg/mL (≈ 1.55 µM)
MIC [4, 8]: 2 µg/mL (≈ 3.1 µM)
